Results on six compounds are retold here after PMC12087695, “A Phenotyping Tool for Seven Cytochrome P450 Enzymes and Two Transporters: Application to Examine the Effects of Clopidogrel and Gemfibrozil” (Clinical Pharmacology and Therapeutics, 2025).

Structures are written as SMILES.

Series [1] in a line: Plasma pharmacokinetics of pretreatment drugs clopidogrel, gemfibrozil and their metabolites. In kind it is in vivo. The settings on record: human, after clopidogrel 300 mg single oral dose (phase IV).
Experimental: (§1) This open‐label cross‐over clinical trial included five study phases that each participant underwent in a randomized order (Table 1 ). There was at least 2‐week washout period between different study days.
(§2) On study days, venous blood samples from all participants were drawn from forearm vein cannulas before the administration of the pretreatment drugs and 5 minutes before and 0.5, 1, 1.5, 2, 3, 4, 6, 8, 12, and 23 hours after the administration of the index drugs for determination of index drug and metabolite concentrations. Additional venous blood samples for biomarker analyses were drawn before the administration of the pretreatment drugs and 5 minutes before and 3 hours after the administration of the index drugs. Standardized breakfast was served 1 hour, lunch 3 hours, and snacks 7 and 9 hours after the administration of index drugs. Blood glucose levels were monitored with CareSens Dual point‐of‐care blood glucose meter (i‐SENS Inc., Seoul, South Korea) at each venous blood sampling time point up to 12 hours after the administration of index drugs.
The quality control samples for each analyte at relevant concentrations were quantified with each batch of plasma samples.
Series [2] deals with CYP2B6. The settings on record: index drug data, healthy volunteers.
Experimental: as §1
(§3) On study days, venous blood samples from all participants were drawn from forearm vein cannulas before the administration of the pretreatment drugs and 5 minutes before and 0.5, 1, 1.5, 2, 3, 4, 6, 8, 12, and 23 hours after the administration of the index drugs for determination of index drug and metabolite concentrations. […] Blood glucose levels were monitored with CareSens Dual point‐of‐care blood glucose meter (i‐SENS Inc., Seoul, South Korea) at each venous blood sampling time point up to 12 hours after the administration of index drugs.
(§4) The flow rate was 0.3 mL/min, and the gradient program for the mobile phase B was from 20% to 90% over 7 minutes, wash at 90% 7–9.5 minutes, followed by balancing at 20% before next injection. […] The quality control samples for each analyte at relevant concentrations were quantified with each batch of plasma samples.
(§5) As for biomarkers, AUC0‐3h values in phases I–III and AUC0‐4h values in phases III–V for GCDCA‐3G and GCDCA‐3S and AUC0‐4h values in phases III and V for M430, M444, and solanidine were calculated with trapezoidal rule in Excel (Microsoft, Redmond, WA). […]
In the next series the target is CYP2C19 (Homo sapiens, UniProt P33261). The settings on record: index drug data, healthy volunteers.
CYP2C19, sequence (P33261 whole entry): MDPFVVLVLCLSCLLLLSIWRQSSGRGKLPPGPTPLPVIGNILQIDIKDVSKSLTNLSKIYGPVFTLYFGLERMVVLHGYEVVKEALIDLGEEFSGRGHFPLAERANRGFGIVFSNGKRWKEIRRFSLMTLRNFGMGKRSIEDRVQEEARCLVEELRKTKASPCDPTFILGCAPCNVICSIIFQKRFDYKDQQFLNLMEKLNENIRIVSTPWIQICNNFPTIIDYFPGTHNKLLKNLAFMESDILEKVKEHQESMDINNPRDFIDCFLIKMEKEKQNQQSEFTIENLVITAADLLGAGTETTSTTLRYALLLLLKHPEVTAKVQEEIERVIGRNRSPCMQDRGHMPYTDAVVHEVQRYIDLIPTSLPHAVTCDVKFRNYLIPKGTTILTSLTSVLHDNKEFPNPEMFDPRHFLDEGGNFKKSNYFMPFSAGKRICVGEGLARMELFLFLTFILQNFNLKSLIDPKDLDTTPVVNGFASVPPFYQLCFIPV
Series [3] concerns CYP2B6. The settings on record: 75 mg dose; ref US FDA; cited from earlier work.
In another series the target is T1, CYP2C8 (Homo sapiens, UniProt P10632).
T1 sequence (P10632 1-490): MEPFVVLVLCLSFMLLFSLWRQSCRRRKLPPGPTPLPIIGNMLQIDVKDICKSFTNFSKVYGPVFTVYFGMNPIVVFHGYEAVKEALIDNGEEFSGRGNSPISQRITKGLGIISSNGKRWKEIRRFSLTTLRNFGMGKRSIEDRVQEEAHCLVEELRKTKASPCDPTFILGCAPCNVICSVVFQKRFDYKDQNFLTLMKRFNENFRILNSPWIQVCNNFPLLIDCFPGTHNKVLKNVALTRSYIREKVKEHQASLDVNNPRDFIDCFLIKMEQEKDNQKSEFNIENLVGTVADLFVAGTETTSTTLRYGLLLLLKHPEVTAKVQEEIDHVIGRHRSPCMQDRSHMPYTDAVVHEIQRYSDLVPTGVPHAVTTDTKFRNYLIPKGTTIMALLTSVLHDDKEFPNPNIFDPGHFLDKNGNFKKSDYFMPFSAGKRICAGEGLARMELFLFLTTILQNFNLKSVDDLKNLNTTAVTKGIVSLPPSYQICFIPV
Put plainly: CYP2C8 phenotyping with index drug repaglinide. To be noted: repaglinide index drug data, healthy volunteers.

The subject of another series is OATP1B1. The experiment in a line: OATP1B1 endogenous biomarker GCDCA-3G in plasma.
The next series concerns the target T2, OATP1B3 (Homo sapiens, UniProt Q9NPD5).
T2 sequence (Q9NPD5 1-702): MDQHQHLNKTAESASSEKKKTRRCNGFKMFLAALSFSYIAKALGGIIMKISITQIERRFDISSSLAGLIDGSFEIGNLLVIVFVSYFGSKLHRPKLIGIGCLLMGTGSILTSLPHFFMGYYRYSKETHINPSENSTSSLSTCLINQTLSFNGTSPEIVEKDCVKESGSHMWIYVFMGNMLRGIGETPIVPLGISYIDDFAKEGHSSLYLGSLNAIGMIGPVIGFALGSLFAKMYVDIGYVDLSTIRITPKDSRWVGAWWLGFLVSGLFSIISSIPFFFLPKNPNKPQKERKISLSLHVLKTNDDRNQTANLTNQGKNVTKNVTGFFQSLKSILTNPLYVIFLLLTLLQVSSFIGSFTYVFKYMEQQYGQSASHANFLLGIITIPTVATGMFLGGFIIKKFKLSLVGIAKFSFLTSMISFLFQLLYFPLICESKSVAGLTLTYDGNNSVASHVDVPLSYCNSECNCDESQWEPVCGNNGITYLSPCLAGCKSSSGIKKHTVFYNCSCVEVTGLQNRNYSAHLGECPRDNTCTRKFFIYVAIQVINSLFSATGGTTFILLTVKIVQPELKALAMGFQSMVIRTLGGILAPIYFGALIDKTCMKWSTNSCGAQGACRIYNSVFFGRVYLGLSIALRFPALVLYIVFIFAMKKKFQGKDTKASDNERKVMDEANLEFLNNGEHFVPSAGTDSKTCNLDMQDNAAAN
Put plainly: OATP1B3 endogenous biomarker GCDCA-3S in plasma.

The next series is described as follows: clinical. The settings on record: human, in vivo; for AUC(0-t) / AUC(0-inf) / Cmax: geometric mean (geometric CV); for AUC(0-inf): AUC0-∞; for half-life: t1/2, geometric mean (geometric CV).
The nature of series [4]: Plasma pharmacokinetics of cocktail index drugs and their metabolites, five-phase crossover trial.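 Also: parameters derived from plasma drug levels quantified by LC–MS with internal standards after acetonitrile protein precipitation.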
Experimental: as §1
(§6) On study days, venous blood samples from all participants were drawn from forearm vein cannulas before the administration of the pretreatment drugs and 5 minutes before and 0.5, 1, 1.5, 2, 3, 4, 6, 8, 12, and 23 hours after the administration of the index drugs for determination of index drug and metabolite concentrations. […] Standardized breakfast was served 1 hour, lunch 3 hours, and snacks 7 and 9 hours after the administration of index drugs.
(§7) Prior to the analysis, the analytes were extracted from the plasma samples with simple protein precipitation. Plasma samples (50 μL) were mixed with acetonitrile solution (200 μL) containing internal standards. The samples were centrifugated and an aliquot of the supernatant was mixed with an equal volume of water before LC–MS analyses.
(§8) The flow rate was 0.3 mL/min, and the gradient program for the mobile phase B was from 20% to 90% over 7 minutes, wash at 90% 7–9.5 minutes, followed by balancing at 20% before next injection. […] The column and mobile phases were the same as above, and the gradient program for the mobile phase B was from 40% to 90% over 5 minutes, wash at 90% 5–7.3 minutes, followed by balancing at 40% before next injection. The quality control samples for each analyte at relevant concentrations were quantified with each batch of plasma samples.
(§9) Individuals with poor metabolism or transport function phenotype were excluded from respective statistical comparisons.
Series [5] can be described thus: Safety: adverse effects and blood glucose monitoring. In kind it is in vivo, human.
Experimental: as §2
The mark [6] stands for this setting: OATP1B1 normal/decreased function (N = 13), clopidogrel pretreatment.
[7] abbreviates: OATP1B1 normal/decreased function (N = 13), gemfibrozil pretreatment.
The mark [8] stands for this setting: OATP1B1 normal/decreased function (N = 13), phase III full cocktail (control).
[9] abbreviates: OATP1B1 poor function (N = 3), clopidogrel pretreatment.
Where [10] appears, read: OATP1B1 poor function (N = 3), gemfibrozil pretreatment.
The mark [11] stands for this setting: OATP1B1 poor function (N = 3), phase III full cocktail (control).
Where [12] appears, read: N = 16, clopidogrel pretreatment.
Setting [13] is: N = 16, gemfibrozil pretreatment.
The mark [14] stands for this setting: N = 16, phase III full cocktail (control).
The mark [15] stands for this setting: AUC0-23h, phase II: Geneva cocktail.
Setting [16] is: AUC0-23h, phase IV: clopidogrel 300 mg pretreatment + full cocktail.
Setting [17] is: AUC0-23h, phase V: gemfibrozil 600 mg b.i.d. 3 days pretreatment + full cocktail.
[18] abbreviates: phase IV: clopidogrel 300 mg pretreatment + full cocktail.
Setting [19] is: phase V: gemfibrozil 600 mg b.i.d. 3 days pretreatment + full cocktail.
Setting [20] is: 0.05 mg, phase I: repaglinide 0.05 mg alone.

Experimental for CYP2C19: as §1, §3, §4, §5
Experimental for CYP2C8: as §1, §3
The limit of quantification for repaglinide was 0.01 ng/mL. […] For GCDCA‐3G and GCDCA‐3S, the limit of quantification was 0.5 ng/mL and the between‐day precisions and accuracies were below 5% and ± 10% at relevant concentrations (10 and 200 ng/mL).
As for biomarkers, AUC0‐3h values in phases I–III and AUC0‐4h values in phases III–V for GCDCA‐3G and GCDCA‐3S and AUC0‐4h values in phases III and V for M430, M444, and solanidine were calculated with trapezoidal rule in Excel (Microsoft, Redmond, WA). 0‐hour metabolic ratio and AUC0‐4h ratios were calculated for M430/solanidine and M444/solanidine. […]
Experimental for OATP1B1: (§10) On study days, venous blood samples from all participants were drawn from forearm vein cannulas before the administration of the pretreatment drugs and 5 minutes before and 0.5, 1, 1.5, 2, 3, 4, 6, 8, 12, and 23 hours after the administration of the index drugs for determination of index drug and metabolite concentrations. Additional venous blood samples for biomarker analyses were drawn before the administration of the pretreatment drugs and 5 minutes before and 3 hours after the administration of the index drugs.
(§11) Plasma repaglinide, OATP1B1 biomarker GCDCA‐3G, OATP1B3 biomarker GCDCA‐3S, and CYP2D6 biomarker solanidine were analyzed using Sciex 5500 Qtrap and Sciex 6500 Qtrap LC–MS systems (AB Sciex, Toronto, ON, Canada) as previously described.[20], [21], [22] The limit of quantification for repaglinide was 0.01 ng/mL. The between‐day precisions (CV%) for quality controls (0.1 and 2.0 ng/mL) were below 10% and accuracies were within ±10%. For GCDCA‐3G and GCDCA‐3S, the limit of quantification was 0.5 ng/mL and the between‐day precisions and accuracies were below 5% and ± 10% at relevant concentrations (10 and 200 ng/mL).
(§12) As for biomarkers, AUC0‐3h values in phases I–III and AUC0‐4h values in phases III–V for GCDCA‐3G and GCDCA‐3S and AUC0‐4h values in phases III and V for M430, M444, and solanidine were calculated with trapezoidal rule in Excel (Microsoft, Redmond, WA).
(§13) Individuals with poor metabolism or transport function phenotype were excluded from respective statistical comparisons. Additionally, to keep comparisons balanced, subjects lacking pharmacokinetic variable data in any study phase were excluded from the respective analyses. Prior to statistical analyses with IBM SPSS Statistics Version 29.0 for Windows (IBM Corporation, Armonk, NY), all pharmacokinetic variable values were logarithmically transformed. Pharmacokinetic variables except T max were compared between different study phases by repeated‐measures analysis of variance with study phase as a within‐subjects factor. T max values were compared with Wilcoxon signed‐rank test. Differences with P < 0.05 after the Bonferroni correction were considered statistically significant. The data are presented as geometrical mean values or geometric mean ratios with geometric CV or 90% confidence intervals (CI) if not otherwise indicated.
Experimental for OATP1B3: as §10, §11, §12, §13
Experimental for clinical: as §1, §6, §7, §8, §9

For the compound `COC(=O)[C@H](c1ccccc1Cl)N1CCc2sccc2C1` [Clopidogrel, clopidogrel], in series [1], the highest concentration (Cmax) worked out at 3.75 ng/mL. Also, the AUC(0-t) in [1] (read-out: AUC0-24h, geometric mean (90% CI)) is 11.6 ng·h/mL. For the same compound, in the series on CYP2B6 [2], the “CYP2B6 inhibition strength in the trial” value is “moderate”. Moreover, at CYP2C19, the “CYP2C19 inhibition strength in the trial” value is on record as “weak”. Besides, the CYP2B6 inhibitor classification entry with CYP2B6 [3] is recorded as “weak”. Besides, at CYP2C8, the “CYP2C8 inhibition strength in the trial” value was “moderate”. In addition, the “OATP1B1 inhibition in the trial” value in the series with OATP1B1 (GCDCA-3G biomarker data) is given as “did not affect”. In addition, at OATP1B3 (GCDCA-3S biomarker data), the “OATP1B3 inhibition in the trial” value is recorded as “did not affect”.
`C[C@H](CCC(=O)NCC(=O)O)[C@H]1CC[C@H]2[C@@H]3[C@H](O)C[C@@H]4C[C@H](O[C@@H]5O[C@H](C(=O)O)[C@@H](O)[C@H](O)[C@H]5O)CC[C@]4(C)[C@H]3CC[C@]12C` [GCDCA‐3G, glycochenodeoxycholate 3‐O‐glucuronide]: the “GCDCA-3G AUC0-4h, geometric mean (geometric CV)” value in the series with OATP1B1 (setting [6]) was 77.5 (69.9%) ng × h/mL; with OATP1B1 (setting [7]), 118 (65.4%) ng × h/mL; with OATP1B1 (setting [8]), 88.6 (51.3%) ng × h/mL; with OATP1B1 (setting [9]), 791 (56.1%) ng × h/mL; with OATP1B1 (setting [10]) it was 809 (75.4%) ng × h/mL; in the series on OATP1B1 (setting [11]) it was 755 (48.4%) ng × h/mL. For the same compound, the “GCDCA-3G C0, geometric mean (geometric CV)” value in the series with OATP1B1 (setting [6]) is 21.7 (81.7%) ng/mL; in the series on OATP1B1 (setting [7]), 35.7 (82.5%) ng/mL; in the series on OATP1B1 (setting [8]) it was 22.9 (60.0%) ng/mL; in the series with OATP1B1 (setting [9]), 238 (57.2%) ng/mL; in the series with OATP1B1 (setting [10]), 215 (79.1%) ng/mL; in the series on OATP1B1 (setting [11]), 206 (73.8%) ng/mL. Besides, the “GCDCA-3G AUC0-3h, geometric mean (geometric CV)” value with OATP1B1 (setting [8]) is 66.3 (49.6%) ng×h/mL; in the series on OATP1B1 (OATP1B1 normal/decreased function (N=13), phase I repaglinide only) it was 68.3 (61.0%) ng×h/mL; in the series on OATP1B1 (OATP1B1 normal/decreased function (N=13), phase II Geneva cocktail only) it was 63.6 (75.2%) ng×h/mL.
Consider `C[C@H](CCC(=O)NCC(=O)O)C1CCC2C3C(CC[C@@]21C)[C@@]1(C)CC[C@@H](OS(=O)(=O)O)C[C@H]1C[C@H]3O` (some centres unmarked) [GCDCA‐3S, glycochenodeoxycholate 3‐sulfate], for which the “GCDCA-3S AUC0-4h, geometric mean (geometric CV)” value at OATP1B3 (setting [12]) is on record as 146 (61.8%) ng × h/mL; on OATP1B3 (setting [13]) it was 212 (46.9%) ng × h/mL; on OATP1B3 (setting [14]), 190 (67.4%) ng × h/mL. Further, the “GCDCA-3S C0, geometric mean (geometric CV)” value at OATP1B3 (setting [12]) was 49.2 (69.3%) ng/mL; at OATP1B3 (setting [13]) it was 65.5 (72.9%) ng/mL; on OATP1B3 (setting [14]) it was 50.8 (85.3%) ng/mL. Also, the “GCDCA-3S AUC0-3h, geometric mean (geometric CV)” value is on record as 141 (68.3%) ng×h/mL on OATP1B3 (setting [14]); 119 (69.0%) ng×h/mL at OATP1B3 (N=16, phase I repaglinide only); 106 (65.4%) ng×h/mL at OATP1B3 (N=16, phase II Geneva cocktail only).
On to `Cc1ncc2n1-c1ccc(Cl)cc1C(c1ccccc1F)=NC2` [Midazolam, midazolam], for which the AUC(0-t) was determined as 9.89 ng·h/mL in the series “clinical” (setting [15]), 11.3 ng·h/mL in the series “clinical” (setting [16]) and 8.06 ng·h/mL in “clinical” (setting [17]). Moreover, the AUC(0-inf) in the series “clinical” (phase II: Geneva cocktail) amounted to 9.82 ng·h/mL; in the series “clinical” (setting [18]) it was 11.2 ng·h/mL; in “clinical” (setting [19]), 7.98 ng·h/mL. For the same compound, the maximum concentration (Cmax) in “clinical” (setting [18]) stood at 4.33 ng/mL; in “clinical” (setting [19]), 3.25 ng/mL. Besides, the half-life in “clinical” (phase II: Geneva cocktail) was 2.29 h; in the series “clinical” (setting [18]), 2.4 h; in “clinical” (setting [19]), 2.29 h. In series [4] (phase II: Geneva cocktail), the “Cmax, geometric mean (geometric CV)” value is 4.03 (36.4%) ng/mL. The results for the “Tmax, median (range)” value in series [4] (phase II: Geneva cocktail) and in series [4] (setting [18]) were 0.5 (0.5-1.0) h and 1.0 (0.5-1.0) h, respectively.
For `COc1ccc2[nH]c([S+]([O-])Cc3ncc(C)c(OC)c3C)nc2c1` (centres unmarked) [Omeprazole, omeprazole], the AUC(0-t) in the series “clinical” (setting [15]) is 177 ng·h/mL; in “clinical” (setting [16]), 214 ng·h/mL. For the same compound, the total exposure AUC(0-inf) in the series “clinical” (phase II: Geneva cocktail) was determined as 177 ng·h/mL; in the series “clinical” (setting [18]), 214 ng·h/mL; in “clinical” (setting [19]), 149 ng·h/mL. Further, the Cmax in the series “clinical” (setting [18]) was found to be 167 ng/mL; in the series “clinical” (setting [19]), 98 ng/mL. In “clinical” (phase II: Geneva cocktail), this compound gave a half-life of 0.76 h. Moreover, in series [4] (phase II: Geneva cocktail), the “Cmax, geometric mean (geometric CV)” value was 144 (88.5%) ng/mL. Further, the figures for the “t1/2, geometric mean (geometric CV)” value in series [4] (setting [18]) and in series [4] (setting [19]) were 0.69 (30.9%) h and 0.78 (59.9%) h, respectively. In addition, the “AUC0-23h, geometric mean (geometric CV)” value in series [4] (setting [19]) was 150 (62.8%) ng×h/mL.
Regarding `CCOc1cc(CC(=O)N[C@@H](CC(C)C)c2ccccc2N2CCCCC2)ccc1C(=O)O` [Repaglinide, repaglinide], in series [5] (0.05 mg repaglinide, breakfast an hour later, also after gemfibrozil pretreatment), the Hypoglycemia entry is on record as “no hypoglycemia was observed”. Also, the “Safety / adverse effects” value in series [5] (all study phases, 16 healthy volunteers) is “safe”. Besides, the AUC(0-t) in the series “clinical” (0.05 mg, AUC0-4h, phase I: repaglinide 0.05 mg alone) is 0.936 ng·h/mL; in the series “clinical” (0.05 mg, AUC0-23h, phase I: repaglinide 0.05 mg alone), 1.01 ng·h/mL; in “clinical” (AUC0-4h, phase IV: clopidogrel 300 mg pretreatment + full cocktail), 3.7 ng·h/mL; in “clinical” (AUC0-4h, phase V: gemfibrozil 600 mg b.i.d. 3 days pretreatment + full cocktail), 4.93 ng·h/mL; in the series “clinical” (setting [16]) it was 5.55 ng·h/mL; in “clinical” (setting [17]), 9.21 ng·h/mL. Besides, the total exposure AUC(0-inf) stood at 1.01 ng·h/mL in the series “clinical” (setting [20]), 5.65 ng·h/mL in the series “clinical” (setting [18]) and 9.64 ng·h/mL in the series “clinical” (setting [19]). Further, the highest concentration (Cmax) in the series “clinical” (setting [20]) turned out to be 0.701 ng/mL; in the series “clinical” (setting [18]), 1.69 ng/mL; in “clinical” (setting [19]), 2.08 ng/mL. Also, the half-life is 1.07 h in “clinical” (setting [20]), 2.78 h in “clinical” (setting [18]) and 3.35 h in “clinical” (setting [19]). Also, the time of peak concentration (Tmax) in “clinical” (Tmax, median (range), phase IV: clopidogrel 300 mg pretreatment + full cocktail) was determined as 1 h. For the same compound, the “Tmax, median (range)” value in series [4] (phase I: repaglinide 0.05 mg alone) is on record as 0.5 (0.5-1.0) h.
